In patent publication US11154569B2, “Ruthenium μ-nitrido complexes and their use as calcium uptake inhibitors” (CORNELL UNIVERSITY, priority 2018, dated 2021):

Legend:
[1] = biological target: T1, mitochondrial calcium uniporter (MCU) (Homo sapiens, UniProt Q8NE86); assay: MCU-mediated Ca2+ uptake and ΔΨm in permeabilized HEK293T cells; type: cell-based; parameters: endogenous in cells; host or cells: HEK293T (digitonin-permeabilized); conditions: 5 μM compound, 20 μM Ca2+ bolus
T1 sequence (Q8NE86 51-351): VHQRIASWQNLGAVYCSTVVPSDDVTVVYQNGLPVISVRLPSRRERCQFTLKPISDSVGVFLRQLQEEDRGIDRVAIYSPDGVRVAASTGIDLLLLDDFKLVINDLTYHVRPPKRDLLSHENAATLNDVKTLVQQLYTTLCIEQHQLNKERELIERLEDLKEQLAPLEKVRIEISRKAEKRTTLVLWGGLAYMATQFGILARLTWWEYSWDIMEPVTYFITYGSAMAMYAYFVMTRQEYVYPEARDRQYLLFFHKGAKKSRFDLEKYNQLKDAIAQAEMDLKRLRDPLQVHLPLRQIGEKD
T1 sequence (Q9H4I9 48-107 partner limits assumed): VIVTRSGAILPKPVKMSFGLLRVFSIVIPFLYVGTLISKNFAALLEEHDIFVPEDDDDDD
Procedure: An equal number of IHEK293T (6×10^6 cells) were washed in Ca^2+ free PBS, pH 7.4, resuspended and permeabilized with 40 μg/ml digitonin in 1.5 ml of intracellular medium (ICM) composed of 120 mM KCl, 10 mM NaCl, 1 mM K—H2PO4, 20 mM HE PES-Tris, pH 7.2 and 2 μM thapsigargin to block the SERCA pump. All measurements were performed in the presence of 2 mM succinate. The permeabilized cells were loaded with JC-1 (800 nM) and Fura2-FF (0.5 μM), respectively. Fluorescence was monitored in a multi-wavelength excitation dual-wavelength emission fluorimeter. [Ca^2+]out is represented as the excitation ratio (340 nm/380 nm) of Fura2-FF/FA fluorescence and ΔΨm as the ratio of the fluorescence of J-aggregate (570 nm excitation/595 nm emission) and monomer (490 nm excitation/535 nm emission) forms of JC-1. A series of extra-mitochondrial Ca^2+ bolus (20 μM) was added and mitochondrial uncoupler, CCCP (2 jμM), were added at the indicated time points. All of the experiments were performed at 37° C. with constant stirring.
With the new nitrido-bridged ruthenium compounds C-2 and C-3 prepared, MCU-inhibitory properties of these compounds were evaluated and their activities compared to C-1, the oxo-bridged Ru360 analogue of the conventional art (S. R. Nathan et al., Inorg. Chem. 2017, 56, 3123-3126 and S. R. Nathan et al., J. Vis. Exp. 2017, 56527). The cytotoxicity of the complexes in HEK293 cells was first measured using the colorimetric thiazolyl blue tetrazolium bromide (MTT) assay, as well known in the art. […] To measure the effect of these compounds on MCU activity, permeabilized HEK293T cells were treated with commercially available Ru360, C-1, C-2, or C-3 (5 jμM) 200 seconds prior to the delivery of a 20 μM bolus of Ca^2+ in the presence of 2 mM succinate as an energy source and the sarco/endoplasmic reticulum Ca^2+-ATPase (SERCA) pump blocker thapsigargin to prevent ER Ca^2+ uptake (S. Shanmughapriya et al., Sci. Signal. 2015, 8, ra23).
FIGS. 2A-2C are graphs showing changes in mitochondrial membrane potential (ΔΨm, JC-1, top panel) and extramitochondrial Ca^2+([Ca^2+]out) clearance (Fura-2 FF, bottom panel) in digitonin permeabilized HEK293T cells in response to 20 μM of Ca^2+ after treatment with 5 μM of C-1 (FIG. 2A), C-2 (FIG. 2B), and C-3 (FIG. 2C). The transient drop in ΔΨm in control cells upon Ca^2+ addition indicates accumulation of Ca^2+ in the mitochondrial matrix. FIG. 2D is a graph quantifying the rate of [Ca^2+] uptake as a function of decrease in [Ca^2+]out after a […] Ca^2+ pulse. […] Additionally, ΔΨm was monitored using 5,5′,6,6′-tetrachloro-1,1′,3,3′-tetraethylbenzimidazolylcarbocyanine iodide (JC-1) dye (M. Reen et al., Biochemistry 1991, 30, 4480-4486).
Having identified (C-2 as a cell-permeable MCU inhibitor, a dose-response analysis was performed to determine the potency of C-2 towards mCa^2+ uptake inhibition of C-2 in a permeabilized cell system. Permeabilized IHEK293T cells were treated with C-2 (1 nM to 1 μM). A 20 μM Ca^2+ bolus was added after baseline recording, and the extra-mitochondrial calcium cleared was used as an indicator for MCU-mediated mCa^2+ uptake using Fura-2FF. The results are shown in FIGS. 4A-4C. FIG. 4A includes representative traces of [Ca^2+]out clearance in permeabilized HEK293T cells challenged with a range of C-2 concentrations (1, 2, 3, 5, and 10 nM). FIG. 4B is a graph comparing MCU-inhibitory effect by Ru360 (30 nM) and C-2 (2 and 10 nM) at lower concentrations. FIG. 4C is a graph showing calculation of dose-dependent IC50 inhibition by C-2 and Ru360. Data represent mean±SEM (n=3-6), n.s.=not significant. […] Furthermore, complete inhibition of mCa^2+ uptake was observed when cells were dosed with 10 nM C-2 while 500 nM of Ru360 was required for the same response (FIGS. 4A and 4B).

[2] = biological target: T1, mitochondrial calcium uniporter (MCU); assay: Cytoplasmic and mitochondrial Ca2+ dynamics in intact HeLa cells after histamine; type: cell-based; parameters: 30 min) and Rhod-2 AM; endogenous in cells; host or cells: HeLa (intact; some experiments with transfected Ca2+ sensors R-GECO1 and GCamP6-mt, MCU itself not transfected); conditions: intact HeLa cells, 50 μM for 30 minutes, histamine 100 μM; Rhod-2 AM and GCamP6-mt
Procedure: HeLa cells were loaded with Fluo-4-AM (5 μM; 30 min) and Rhod-2 AM (2 μM; 50 min) in extracellular medium as previously described (F. Perocchi et al, Nature 2010, 467, 291-296). Coverslips were mounted in an open perfusion microincubator at 37° C. and imaged. After 1 minute of baseline recording, histamine (100 μM) was added, and confocal images were recorded every 3 seconds at 488 and 561 nm excitation using a 40× oil objective. Images were analyzed and quantified by using ImageJ (NIH).
HeLa cells were transiently transfected with genetically encoded cytosolic and mitochondrial targeted Ca^2+ sensors R-GECO1 and GCamP6-mt plasmids. After 48 hours, the transfected cells were treated with MCU inhibitors (C1, C-2, and C-3; 50 μM). After 1 minute of baseline recording, histamine (100 μM) was added, and the change of R-GECO1 and GCamP6-mt fluorescence was measured with 488-nm and 561-nm excitation on a confocal microscope equipped with a 40× oil objective. Images were analyzed and quantified by using ImageJ (NIH).
Encouraged by the high cell permeability and mitochondrial selectivity of C-2, the capability of this complex to inhibit MCU-mediated mCa^2+ uptake in intact, non-permeabilized cells was investigated Briefly, HeLa cells were loaded with the cytosolic calcium concentration ([Ca^2+]) indicator Fluo-4 AM and the mitochondrial calcium concentration ([…]) indicator Rhod-2 AM in the presence or absence of C-1, C-2, and C-3 (50 μM). Cells were stimulated with the GPCR agonist histamine (100 μM) to rapidly elevate cCa^2+ levels to induce mCa^2+ uptake (Z. Dong et al., Mol. Cell 2017, 65, 1014-1028).
FIGS. 3A and 3B are graphs showing results of cytosolic ([Ca^2+]e, Fluo-4 AM) and mitochondrial ([Ca^2+]m, Rhod-2 AM) calcium transients in HeLa cells after treatment with histamine (100 μM) that were pretreated with or without C-1, C-2, or C-3 (50 μM) for 30 minutes. FIGS. 3C and 3D are graphs showing results of cytosolic ([Ca^2+]e, R-GECO) and mitochondrial ([Ca^2+]m, GCamP6-mt)) calcium transients in HeLa cells after treatment with histamine (100 μM) that were pretreated with or without C-1, C-2, or C-3 (50 μM) for 30 minutes. HeLa cells were co-transfected with R-GECO1 and GCamP6-mt. 48 hours post-transfection. Data are represented as mean±SEM. *p<0.05. n=3-6.

## [Ru2(μ-O)(NH3)8(H2O)2]^+5 [C-1, reference compound]
[1]; digitonin permeabilized HEK293T cells
  MCU mediated mCa2+ uptake: significant reduction in MCU mediated mCa^2+ uptake
[1]; permeabilized HEK293T cells
  transient ΔΨm loss (JC-1): no transient A m loss
[2]
  inhibition of MCU-mediated mCa2+ uptake in intact cells: did not show appreciable inhibition of mCa^2+ uptake
